In patent EP0183129A1, “Quinolonecarboxylic acid derivatives” (KYORIN PHARMACEUTICAL CO., LTD., priority 1984, dated 1986):
≈ marks a conversion by molar mass, not a printed value. Where a name gives a salt, the structure may show the parent alone. Read-outs that look alike come from different tables or passages of the source.

How the values were obtained:
[1] = test system: Bacillus subtilis PCI 219; assay: In vitro antibacterial activity, MIC (standard strain); type: cell-based; settings: PCI219
[2] = test system: Staphylococcus aureus 209 P; assay: as above; type: cell-based
[3] = test system: S. aureus IID 670 (Terajima); assay: as above; type: cell-based, Staphylococcus aureus; settings: Staphylococcus aureus
S. epidermidis IID 866 = assay: as above; type: cell-based; settings: Staphylococcus epidermidis
S. pneumoniae IID 552 = assay: as above; type: cell-based; settings: Streptococcus pneumoniae, IID552; S. pneumoniae IID 552; 10^6 cells/ml; standard strain; read-out: MIC
E. coli ATCC 10536 = assay: as above; type: cell-based; settings: Escherichia coli, ATCC10536
[4] = test system: Proteus vulgaris IFO 3167; assay: as above; type: cell-based; settings: IFO3167; Proteus vulgaris IFO 3167; 10^6 cells/ml; standard strain; read-out: MIC
P. mirabilis IID 994 = assay: as above; type: cell-based; settings: Proteus mirabilis, IID994; P. mirabilis IID 994; 10^6 cells/ml; standard strain; read-out: MIC
[5] = test system: Morganella morganii IID 602; assay: as above; type: cell-based; settings: IID602; Morganella morganii IID 602; 10^6 cells/ml; standard strain; read-out: MIC
[6] = test system: Enterobacter cloacae IID 977; assay: as above; type: cell-based; settings: Enterobacter cloacae, IID977, Enterobacter cloacae IID 977; 10^6 cells/ml; standard strain; read-out: MIC
[7] = test system: Salmonella entritidis IID 604; assay: as above; type: cell-based; settings: IID604; Salmonella entritidis IID 604; 10^6 cells/ml; standard strain; read-out: MIC
[8] = test system: Serratia marcescens IID 618; assay: as above; type: cell-based; settings: Serratia marcescens, IID618, Serratia marcescens IID 618; 10^6 cells/ml; standard strain; read-out: MIC
[9] = test system: Pseudomonas aeruginosa V-1; assay: as above; type: cell-based; settings: V1; Pseudomonas aeruginosa V-1; 10^6 cells/ml; standard strain; read-out: MIC
P. aeruginosa IID 1210 = assay: as above; type: cell-based; settings: Pseudomonas aeruginosa, IID1210; P. aeruginosa IID 1210; 10^6 cells/ml; standard strain; read-out: MIC
[10] = test system: Acinetobacter anitratus IID 876; assay: as above; type: cell-based; settings: Acinetobacter calcoaceticus, IID876, Acinetobacter anitratus IID 876; 10^6 cells/ml; standard strain; read-out: MIC
[11] = test system: Bacteroides fragilis GM 7000; assay: as above; type: cell-based; settings: GM7000; Bacteroides fragilis GM 7000; 10^6 cells/ml; standard strain; read-out: MIC
B. fragilis 25285 = assay: as above; type: cell-based, Bacteroides fragilis; settings: Bacteroides fragilis, 25285, B. fragilis 25285; 10^6 cells/ml; standard strain; read-out: MIC
[12] = test system: Clostridium perfringens KYA 13123; assay: microbe, parasite or virus in culture; type: cell-based; settings: KYA13123
C. ramosum = assay: In vitro antibacterial activity, MIC (standard strain); type: cell-based; settings: Thomasclavelia ramosa; C. ramosum; 10^6 cells/ml; standard strain; read-out: MIC
S. pneumoniae 15 = assay: In vitro antibacterial activity, MIC (clinical isolates); type: cell-based; settings: Streptococcus pneumoniae; S. pneumoniae 15; 10^6 cells/ml; clinical isolate; read-out: MIC
S. pneumoniae 2054 = assay: as above; type: cell-based; settings: Streptococcus pneumoniae; S. pneumoniae 2054; 10^6 cells/ml; clinical isolate; read-out: MIC
S. pneumoniae 2950 = assay: as above; type: cell-based; settings: Streptococcus pneumoniae; S. pneumoniae 2950; 10^6 cells/ml; clinical isolate; read-out: MIC
S. pyogenes 3102 = assay: as above; type: cell-based; settings: Streptococcus pyogenes; S. pyogenes 3102; 10^6 cells/ml; clinical isolate; read-out: MIC
S. pyogenes 3107 = assay: as above; type: cell-based; settings: Streptococcus pyogenes; S. pyogenes 3107; 10^6 cells/ml; clinical isolate; read-out: MIC
S. pyogenes 4372 = assay: as above; type: cell-based; settings: Streptococcus pyogenes; S. pyogenes 4372; 10^6 cells/ml; clinical isolate; read-out: MIC
S. agalactiae 4394 = assay: as above; type: cell-based; settings: Streptococcus agalactiae; S. agalactiae 4394; 10^6 cells/ml; clinical isolate; read-out: MIC
S. agalactiae 4049 = assay: as above; type: cell-based; settings: Streptococcus agalactiae; S. agalactiae 4049; 10^6 cells/ml; clinical isolate; read-out: MIC
S. agalactiae 4470 = assay: as above; type: cell-based; settings: Streptococcus agalactiae; S. agalactiae 4470; 10^6 cells/ml; clinical isolate; read-out: MIC
S. agalactiae 4368 = assay: as above; type: cell-based; settings: Streptococcus agalactiae; S. agalactiae 4368; 10^6 cells/ml; clinical isolate; read-out: MIC
S. faecalis 214 = assay: as above; type: cell-based; settings: Enterococcus faecalis; S. faecalis 214; 10^6 cells/ml; clinical isolate; read-out: MIC
S. faecalis 401 = assay: as above; type: cell-based; settings: Enterococcus faecalis; S. faecalis 401; 10^6 cells/ml; clinical isolate; read-out: MIC
[13] = Bacillus subtilis PCI 219, 10^6 cells/ml, standard strain, read-out: MIC
[14] = Staphylococcus aureus 209 P, 10^6 cells/ml, standard strain, read-out: MIC
[15] = IID670, S. aureus IID 670 (Terajima), 10^6 cells/ml, standard strain, read-out: MIC
[16] = IID866, S. epidermidis IID 866, 10^6 cells/ml, standard strain, read-out: MIC
[17] = E. coli ATCC 10536, 10^6 cells/ml, standard strain, read-out: MIC

| Structure (SMILES) | MIC (S. pneumoniae IID 552) [µg/mL] | MIC [4] [µg/mL] | MIC (P. mirabilis IID 994) [µg/mL] | MIC [5] [µg/mL] | MIC [6] [µg/mL] | MIC [7] [µg/mL] | MIC [8] [µg/mL] | MIC [9] [µg/mL] | MIC (P. aeruginosa IID 1210) [µg/mL] | MIC [10] [µg/mL] | MIC [11] [µg/mL] | MIC (B. fragilis 25285) [µg/mL] | MIC [12] [µg/mL] | MIC (C. ramosum) [µg/mL] | MIC (S. pneumoniae 15) [µg/mL] | MIC (S. pneumoniae 2054) [µg/mL] | MIC (S. pyogenes 3102) [µg/mL] | MIC (S. pyogenes 3107) [µg/mL] | MIC (S. pyogenes 4372) [µg/mL] | MIC (S. agalactiae 4394) [µg/mL] | also measured |
| --- | --- | --- | --- | --- | --- | --- | --- | --- | --- | --- | --- | --- | --- | --- | --- | --- | --- | --- | --- | --- | --- |
| NCC1CCN(c2c(F)cc3c(=O)c(C(=O)O)cn(C4CC4)c3c2F)C1 (stereo not drawn) [Example 1, 7-(3-Aminomethyl-l-pyrrolidinyl)-l-cyclopropyl-6,8-difluoro-1,4-dihydro-4-oxo-3-quinolinecarboxylic acid hydrochloride] | 0.05 | 0.025 | 0.05 | 0.1 | 0.1 | 0.05 | 0.2 | 0.39 | 0.78 | 0.1 | 0.78 | 0.39 | 0.39 | 0.78 | 0.05 | 0.05 | 0.05 | 0.05 | 0.05 | 0.1 | MIC [1, 13]: 0.025 µg/mL; MIC [2, 14]: 0.05 µg/mL; MIC [3, 15]: 0.05 µg/mL; MIC (S. epidermidis IID 866; [16]): 0.05 µg/mL; MIC (E. coli ATCC 10536; [17]): 0.025 µg/mL; MIC (S. pneumoniae 2950): 0.05 µg/mL; MIC (S. agalactiae 4049): 0.05 µg/mL; MIC (S. agalactiae 4470): 0.05 µg/mL; MIC (S. agalactiae 4368): 0.05 µg/mL; MIC (S. faecalis 214): 0.1 µg/mL; MIC (S. faecalis 401): 0.1 µg/mL |
| CNCC1CCN(c2c(F)cc3c(=O)c(C(=O)O)cn(C4CC4)c3c2F)C1 (stereo not drawn) [Example 8, 1-Cyclopropyl-6,8-difluoro-1,4-dihydro-7-(3-methylaminomethyl-l-pyrrolidinyl)-4-oxo-3-quinolinecarboxylic acid hydrochloride] | 0.05 | 0.025 | 0.05 | 0.2 | 0.1 | 0.05 | 0.2 | 0.78 | 1.56 | 0.1 | 0.78 | 0.39 | 0.39 | 0.78 | 0.05 | 0.05 | 0.05 | 0.05 | 0.05 | 0.1 | MIC ([1]; Bacillus subtilis): 0.0125 µg/mL; MIC [2, 14]: 0.025 µg/mL; MIC [3, 15]: 0.025 µg/mL; MIC (S. epidermidis IID 866; [16]): 0.025 µg/mL; MIC (E. coli ATCC 10536; [17]): 0.025 µg/mL; MIC (S. pneumoniae 2950): 0.1 µg/mL; MIC (S. agalactiae 4049): 0.2 µg/mL; MIC (S. agalactiae 4368): 0.1 µg/mL; MIC (S. faecalis 214): 0.05 µg/mL; MIC (S. faecalis 401): 0.1 µg/mL |
| CNCC1CCN(c2c(F)cc3c(=O)c(C(=O)O)cn(C4CC4)c3c2Cl)C1 (stereo not drawn) [Example 12, 8-Chloro-l-cyclopropyl-6-fluoro-1,4-dihydro-7-(3-methylaminomethyl-1-pyrrolidinyl)-4-oxo-3-quinolinecarboxylic acid hydrochloride] | 0.05 | 0.025 | 0.025 | 0.1 | 0.05 | 0.05 | 0.1 | 0.39 | 1.56 | 0.05 | 0.2 | 0.1 | 0.1 | 0.39 | 0.05 | 0.05 | 0.05 | 0.05 | 0.05 | 0.1 | MIC [1, 13]: 0.0125 µg/mL; MIC [2, 14]: 0.0125 µg/mL; MIC [3, 15]: 0.025 µg/mL; MIC (S. epidermidis IID 866; [16]): 0.025 µg/mL; MIC (E. coli ATCC 10536; [17]): 0.025 µg/mL; MIC (S. agalactiae 4049): 0.05 µg/mL; MIC (S. agalactiae 4470): 0.05 µg/mL; MIC (S. agalactiae 4368): 0.05 µg/mL; MIC (S. faecalis 214): 0.1 µg/mL; MIC (S. faecalis 401): 0.1 µg/mL |
| CCNCC1CCN(c2c(F)cc3c(=O)c(C(=O)O)cn(C4CC4)c3c2Cl)C1 (stereo not drawn) [Example 13, 8-Chloro-l-cyclorpropyl-6-fluoro-1,4-dihydro-7-(3-ethylaminomethyl-l-pyrrolidinyl)-4-oxo-3-quinolinecarboxylic acid] | 0.05 (≈ 0.123 µM) | 0.025 (≈ 0.0613 µM) | 0.05 (≈ 0.123 µM) | 0.1 (≈ 0.245 µM) | 0.1 (≈ 0.245 µM) | 0.05 (≈ 0.123 µM) | 0.1 (≈ 0.245 µM) | 0.78 (≈ 1.91 µM) | 1.56 (≈ 3.82 µM) | 0.05 (≈ 0.123 µM) | 0.1 (≈ 0.245 µM) | 0.05 (≈ 0.123 µM) | 0.05 (≈ 0.123 µM) | 0.2 (≈ 0.49 µM) | 0.025 (≈ 0.0613 µM) | 0.05 (≈ 0.123 µM) | 0.05 (≈ 0.123 µM) | 0.05 (≈ 0.123 µM) | 0.05 (≈ 0.123 µM) | 0.1 (≈ 0.245 µM) | MIC [1, 13]: 0.0125 µg/mL (≈ 0.0306 µM); MIC [2, 14]: 0.0125 µg/mL (≈ 0.0306 µM); MIC [3, 15]: 0.025 µg/mL (≈ 0.0613 µM); MIC (S. epidermidis IID 866; [16]): 0.025 µg/mL (≈ 0.0613 µM); MIC (E. coli ATCC 10536; [17]): 0.025 µg/mL (≈ 0.0613 µM); MIC (S. agalactiae 4049): 0.05 µg/mL (≈ 0.123 µM); MIC (S. agalactiae 4470): 0.05 µg/mL (≈ 0.123 µM); MIC (S. agalactiae 4368): 0.025 µg/mL (≈ 0.0613 µM); MIC (S. faecalis 214): 0.1 µg/mL (≈ 0.245 µM); MIC (S. faecalis 401): 0.1 µg/mL (≈ 0.245 µM) |
| NCC1CCN(c2c(F)cc3c(=O)c(C(=O)O)cn(C4CC4)c3c2Cl)C1 (stereo not drawn) [Example 14, 8-Chloro-l-cyclopropyl-6-fluoro-l,4-dihydro-7-(3-aminomethyl-l-pyrrolidinyl)-4-oxo-3-quinolinecarboxylic acid hydrochloride] | 0.025 | 0.025 | 0.025 | 0.05 | 0.05 | 0.025 | 0.05 | 0.2 | 0.39 | 0.05 | 0.1 | 0.05 | 0.05 | 0.39 | 0.025 | 0.05 | 0.025 | 0.025 | 0.05 | 0.1 | MIC ([1]; Bacillus subtilis): 0.0125 µg/mL; MIC ([2]; Staphylococcus aureus, 209P): 0.0125 µg/mL; MIC ([3]; IID670): 0.0125 µg/mL; MIC (S. epidermidis IID 866; IID866): 0.0125 µg/mL; MIC (E. coli ATCC 10536): 0.0125 µg/mL; MIC (S. agalactiae 4049): 0.05 µg/mL; MIC (S. agalactiae 4470): 0.05 µg/mL; MIC (S. agalactiae 4368): 0.05 µg/mL; MIC (S. faecalis 214): 0.05 µg/mL; MIC (S. faecalis 401): 0.05 µg/mL |
